# In patent US20100311714A1, “1H-IMIDAZO[4,5-c]QUINOLINONE COMPOUNDS” (priority 2009, published 2010):
# Tested on: PKB Ser473 phosphorylation in Rat1-myr-HA-p110 delta cells
# Assay: Reverse protein array, PKB Ser473 phosphorylation in Rat1-myr-HA-p110 delta cells
# Format: cell-based
# Settings: Rattus norvegicus, 0.5 h, 30 minutes compound incubation, read-out: p-PKB/IC50_delta
row,IC50 [nM],Structure (SMILES)
1,23.6,"Cc1ncccc1-n1c(=O)n(C)c2cnc3ccc(-c4ccc(C(N)=O)cc4)cc3c21 [Example 2.3, 4-[3-Methyl-1-(2-methyl-pyridin-3-yl)-2-oxo-2,3-dihydro-1H-imidazo[4,5-c]quinolin-8-yl]-benzamide]"
2,74.7,"Cc1ncccc1-n1c(=O)n(C)c2cnc3ccc(-c4ccc(CO)nc4)cc3c21 [Example 2.6, 8-(6-Hydroxymethyl-pyridin-3-yl)-3-methyl-1-(2-methyl-pyridin-3-yl)-1,3-dihydro-imidazo[4,5-c]quinolin-2-one]"
3,39.9,"CCNc1ncc(-c2ccc3ncc4c(c3c2)n(-c2ccc(N3CC[C@@H](O)C3)nc2C)c(=O)n4C)cc1C(F)(F)F [Example 34.2, 8-(6-Ethylamino-5-trifluoromethyl-pyridin-3-yl)-1-[6-((R)-3-hydroxy-pyrrolidin-1-yl)-2-methyl-pyridin-3-yl]-3-methyl-1,3-dihydro-imidazo[4,5-c]quinolin-2-one]"
4,479,"COc1ccc(-c2ccc3ncc4c(c3c2)n(-c2ncccc2C)c(=O)n4C)cc1OC [Example 3.10, 8-(3,4-Dimethoxy-phenyl)-3-methyl-1-(3-methyl-pyridin-2-yl)-1,3-dihydro-imidazo[4,5-c]quinolin-2-one]"
5,69.7,"Cc1nc(F)ccc1-n1c(=O)n(C)c2cnc3ccc(-c4cnc5c(ccn5C)c4)cc3c21 [Example 7.2, 1-(6-Fluoro-2-methyl-pyridin-3-yl)-3-methyl-8-(1-methyl-1H-pyrrolo[2,3-b]pyridin-5-yl)-1,3-dihydro-imidazo[4,5-c]quinolin-2-one]"
6,122,"Cc1ncccc1-n1c(=O)n(C)c2cnc3ccc(-c4cncc(N5CCC5)c4)cc3c21 [Example 2.29, 8-(5-Azetidin-1-yl-pyridin-3-yl)-3-methyl-1-(2-methyl-pyridin-3-yl)-1,3-dihydro-imidazo[4,5-c]quinolin-2-one]"
7,20.9,"Cc1ncccc1-n1c(=O)n(C)c2cnc3ccc(-c4cnc(N)c(C(F)(F)F)c4)cc3c21 [Example 2.11, 8-(6-Amino-5-trifluoromethyl-pyridin-3-yl)-3-methyl-1-(2-methyl-pyridin-3-yl)-1,3-dihydro-imidazo[4,5-c]quinolin-2-one]"
8,36,"CNc1ncc(-c2ccc3ncc4c(c3c2)n(-c2ccc(C(C)(C)O)nc2C)c(=O)n4C)cc1F [Example 31.1, 8-(5-Fluoro-6-methylamino-pyridin-3-yl)-1-[6-(1-hydroxy-1-methyl-ethyl)-2-methyl-pyridin-3-yl]-3-methyl-1,3-dihydro-imidazo[4,5-c]quinolin-2-one]"
9,32.8,"CCOc1ccc(-c2ccc3ncc4c(c3c2)n(-c2ccc(N3CCNCC3)nc2OC)c(=O)n4C)cn1 [Example 9.1, 8-(6-Ethoxy-pyridin-3-yl)-1-(2-methoxy-6-piperazin-1-yl-pyridin-3-yl)-3-methyl-1,3-dihydro-imidazo[4,5-c]quinolin-2-one]"
10,8.01,"COc1ncccc1-n1c(=O)n(C)c2cnc3ccc(-c4cnc5[nH]ccc5c4)cc3c21 [Example 1.2, 1-(2-Methoxy-pyridin-3-yl)-3-methyl-8-(1H-pyrrolo[2,3-b]pyridin-5-yl)-1,3-dihydro-imidazo[4,5-c]quinolin-2-one]"
11,18.3,"CNc1ncc(-c2ccc3ncc4c(c3c2)n(-c2ccc(N3CC(O)C3)nc2C)c(=O)n4C)cc1C(F)(F)F [Example 29.4, 1-[6-(3-Hydroxy-azetidin-1-yl)-2-methyl-pyridin-3-yl]-3-methyl-8-(6-methylamino-5-trifluoromethyl-pyridin-3-yl)-1,3-dihydro-imidazo[4,5-c]quinolin-2-one]"
12,207,"CCOc1cc(-c2ccc3ncc4c(c3c2)n(-c2ccc(OCCOC)nc2C)c(=O)n4C)cnc1COC [Example 22.1, 8-(5-Ethoxy-6-methoxymethyl-pyridin-3-yl)-1-[6-(2-methoxy-ethoxy)-2-methyl-pyridin-3-yl]-3-methyl-1,3-dihydro-imidazo[4,5-c]quinolin-2-one]"
13,30.5,"CNc1ncc(-c2ccc3ncc4c(c3c2)n(-c2ccc(N3CC[C@H](O)C3)nc2C)c(=O)n4C)cc1F [Example 32.2, 8-(5-Fluoro-6-methylamino-pyridin-3-yl)-1-[6-((S)-3-hydroxy-pyrrolidin-1-yl)-2-methyl-pyridin-3-yl]-3-methyl-1,3-dihydro-imidazo[4,5-c]quinolin-2-one]"
14,124,"CCOc1cc(-c2ccc3ncc4c(c3c2)n(-c2ccc(N3CCCC3)nc2C)c(=O)n4C)cnc1COC [Example 25.2, 8-(5-Ethoxy-6-methoxymethyl-pyridin-3-yl)-3-methyl-1-(2-methyl-6-pyrrolidin-1-yl-pyridin-3-yl)-1,3-dihydro-imidazo[4,5-c]quinolin-2-one]"
15,251,"CN(C)c1ccc(-c2ccc3ncc4c(c3c2)n(-c2cccnc2)c(=O)n4C)cn1 [Example 5.3, 8-(6-Dimethylamino-pyridin-3-yl)-3-methyl-1-pyridin-3-yl-1,3-dihydro-imidazo[4,5-c]quinolin-2-one]"
16,85.8,"CCOc1ccc(-c2ccc3ncc4c(c3c2)n(-c2ccc(F)nc2C)c(=O)n4C)cn1 [Example 7.3, 8-(6-Ethoxy-pyridin-3-yl)-1-(6-fluoro-2-methyl-pyridin-3-yl)-3-methyl-1,3-dihydro-imidazo[4,5-c]quinolin-2-one]"

row,IC50 [nM],Structure (SMILES)
1,110,"Cc1ncccc1-n1c(=O)n(C)c2cnc3ccc(-c4cncc(N)c4)cc3c21 [Example 2.25, 8-(5-Amino-pyridin-3-yl)-3-methyl-1-(2-methyl-pyridin-3-yl)-1,3-dihydro-imidazo[4,5-c]quinolin-2-one]"
2,23.9,"COc1nc(N2CCNCC2)ccc1-n1c(=O)n(C)c2cnc3ccc(-c4cnc(N)c(C(F)(F)F)c4)cc3c21 [Example 9.2, 8-(6-Amino-5-trifluoromethyl-pyridin-3-yl)-1-(2-methoxy-6-piperazin-1-yl-pyridin-3-yl)-3-methyl-1,3-dihydro-imidazo[4,5-c]quinolin-2-one]"
3,28.9,"Cc1ncccc1-n1c(=O)n(C)c2cnc3ccc(-c4cncc(NC(C)C)c4)cc3c21 [Example 2.24, 8-(5-Isopropylamino-pyridin-3-yl)-3-methyl-1-(2-methyl-pyridin-3-yl)-1,3-dihydro-imidazo[4,5-c]quinolin-2-one]"
4,10.2,"CCNc1cc(-c2ccc3ncc4c(c3c2)n(-c2ccc(N3CCC3)nc2C)c(=O)n4C)cnc1CO [Example 23.8, 1-(6-Azetidin-1-yl-2-methyl-pyridin-3-yl)-8-(5-ethylamino-6-hydroxymethyl-pyridin-3-yl)-3-methyl-1,3-dihydro-imidazo[4,5-c]quinolin-2-one]"
5,365,"Cn1c(=O)n(-c2cccnc2)c2c3cc(-c4ccc(CO)nc4)ccc3ncc21 [Example 5.1, 8-(6-Hydroxymethyl-pyridin-3-yl)-3-methyl-1-pyridin-3-yl-1,3-dihydro-imidazo[4,5-c]quinolin-2-one]"
6,< 4.57,"Cc1nc(N(C)CCO)ccc1-n1c(=O)n(C)c2cnc3ccc(-c4cnc(N)c(C(F)(F)F)c4)cc3c21 [Example 26.1, 8-(6-Amino-5-trifluoromethyl-pyridin-3-yl)-1-{6-[(2-hydroxy-ethyl)-methyl-amino]-2-methyl-pyridin-3-yl}-3-methyl-1,3-dihydro-imidazo[4,5-c]quinolin-2-one]"
7,31.4,"CCNc1cc(-c2ccc3ncc4c(c3c2)n(-c2cccnc2C)c(=O)n4C)cnc1CO [Example 2.31, 8-(5-Ethylamino-6-hydroxymethyl-pyridin-3-yl)-3-methyl-1-(2-methyl-pyridin-3-yl)-1,3-dihydro-imidazo[4,5-c]quinolin-2-one]"
8,79.8,"COc1ccc(-c2ccc3ncc4c(c3c2)n(-c2cccnc2C)c(=O)n4C)cn1 [Example 2.12, 8-(6-Methoxy-pyridin-3-yl)-3-methyl-1-(2-methyl-pyridin-3-yl)-1,3-dihydro-imidazo[4,5-c]quinolin-2-one]"
9,742,"CNc1ncc(-c2ccc3ncc4c(c3c2)n(-c2ncccc2C)c(=O)n4C)cn1 [Example 3.4, 3-Methyl-8-(2-methylamino-pyrimidin-5-yl)-1-(3-methyl-pyridin-2-yl)-1,3-dihydro-imidazo[4,5-c]quinolin-2-one]"
10,39.9,"COC1CCN(c2ccc(-n3c(=O)n(C)c4cnc5ccc(-c6cncc(C(C)(C)O)c6)cc5c43)c(C)n2)C1 (centres unmarked) [Example 28.1, 8-[5-(1-Hydroxy-1-methyl-ethyl)-pyridin-3-yl]-1-[6-(3-methoxy-pyrrolidin-1-yl)-2-methyl-pyridin-3-yl]-3-methyl-1,3-dihydro-imidazo[4,5-c]quinolin-2-one]"
11,102,"Cc1ncccc1-n1c(=O)n(C)c2cnc3ccc(-c4cnc(N(C)C)nc4)cc3c21 [Example 2.15, 8-(2-Dimethylamino-pyrimidin-5-yl)-3-methyl-1-(2-methyl-pyridin-3-yl)-1,3-dihydro-imidazo[4,5-c]quinolin-2-one]"
12,458,"CNC(=O)c1ccc(-c2ccc3ncc4c(c3c2)n(-c2ncccc2C)c(=O)n4C)cc1 [Example 3.5, N-Methyl-4-[3-methyl-1-(3-methyl-pyridin-2-yl)-2-oxo-2,3-dihydro-1H-imidazo[4,5-c]quinolin-8-yl]-benzamide]"
13,23.8,"CNc1ccc(-c2ccc3ncc4c(c3c2)n(-c2ccc(N3CCC3)nc2C)c(=O)n4C)cn1 [Example 23.4, 1-(6-Azetidin-1-yl-2-methyl-pyridin-3-yl)-3-methyl-8-(6-methylamino-pyridin-3-yl)-1,3-dihydro-imidazo[4,5-c]quinolin-2-one]"
14,29.3,"COc1ncccc1-n1c(=O)n(C)c2cnc3ccc(-c4ccc(C(N)=O)cc4)cc3c21 [Example 1.6, 4-[1-(2-Methoxy-pyridin-3-yl)-3-methyl-2-oxo-2,3-dihydro-1H-imidazo[4,5-c]quinolin-8-yl]-benzamide]"
15,42.6,"CNc1ncc(-c2ccc3ncc4c(c3c2)n(-c2ccc(N3CC(F)(F)C3)nc2C)c(=O)n4C)cn1 [Example 24.1, 1-[6-(3,3-Difluoro-azetidin-1-yl)-2-methyl-pyridin-3-yl]-3-methyl-8-(2-methylamino-pyrimidin-5-yl)-1,3-dihydro-imidazo[4,5-c]quinolin-2-one]"
16,620,"Cc1cccnc1-n1c(=O)n(C)c2cnc3ccc(-c4ccc(C(N)=O)cc4)cc3c21 [Example 3.3, 4-[3-Methyl-1-(3-methyl-pyridin-2-yl)-2-oxo-2,3-dihydro-1H-imidazo[4,5-c]quinolin-8-yl]-benzamide]"
